In the assay the target is T1, human GLP-1R receptor (Homo sapiens, UniProt P43220).
T1 construct: expressed in transfected cells
Description: GLP-1R low expression cell assay (cAMP TR-FRET, CHO-K1_hGLP-1Rlow_clone10 cells). The assay is classed as cell-based. Particulars: for EC50: cAMP TR-FRET, 30 min at 25° C. The method, boiled down: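 Readout is cAMP TR-FRET after 30 min compound stimulation at 25 °C of a low-GLP-1R-expressing CHO-K1 clone (1,000 cells/well), with 10-point 3-fold serial dilutions. Percent activation versus a control GLP-1 peptide, from duplicates, was Hill-fitted to give EC50.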
For orientation: In TR-FRET formats the signal depends on donor and acceptor labels being close together.

Where [1] appears, read: maximum activation relative to control GLP-1 peptide agonist.

T1 sequence (P43220 24-463): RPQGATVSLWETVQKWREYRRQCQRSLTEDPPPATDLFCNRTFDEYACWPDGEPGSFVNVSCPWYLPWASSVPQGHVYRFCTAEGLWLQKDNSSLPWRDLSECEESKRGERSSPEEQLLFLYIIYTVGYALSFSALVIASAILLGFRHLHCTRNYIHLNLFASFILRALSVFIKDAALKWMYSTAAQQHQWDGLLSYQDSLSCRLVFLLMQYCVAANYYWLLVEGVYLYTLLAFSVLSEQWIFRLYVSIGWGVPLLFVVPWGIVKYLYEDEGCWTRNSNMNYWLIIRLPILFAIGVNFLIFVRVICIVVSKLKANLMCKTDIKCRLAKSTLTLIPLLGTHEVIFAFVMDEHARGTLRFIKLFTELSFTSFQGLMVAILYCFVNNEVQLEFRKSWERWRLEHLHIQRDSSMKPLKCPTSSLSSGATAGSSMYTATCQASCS

Broadly, the EC50 is the concentration needed to bring the measured effect to its halfway point. For orientation: Emax means the maximal effect, on the per cent scale that the assay sets. On to `COc1cc(C(=O)O)cc2c1nc(CN1CCC(c3cccc(OCc4cc(F)c(C#N)cc4F)n3)CC1)n2C` [Compound 327, 2-((4-(6-((4-Cyano-2,5-difluorobenzyl)oxy)pyridin-2-yl)piperidin-1-yl)methyl)-4-methoxy-1-methyl-1H-benzo[d]imidazole-6-carboxylic acid], for which the EC50 is under 10 nM. Besides, the Emax under setting [1] was over 85%.

With `Cn1c(CN2CCC(c3cccc4c3O[C@@H](c3ccc(Cl)cc3F)CO4)CC2)nc2c(OC(F)F)cc(C(=O)O)cc21` [Compound 334, (S)-2-((4-(3-(4-Chloro-2-fluorophenyl)-2,3-dihydrobenzo[b][1,4]dioxin-5-yl)piperidin-1-yl)methyl)-4-(difluoromethoxy)-1-methyl-1H-benzo[d]imidazole-6-carboxylic acid], the concentration for a half-maximal effect (EC50) lay in the range of 10 to 100 nM. This compound also showed an Emax under setting [1] of over 85%.

`CC(=O)Oc1cc(C(=O)O)cc2c1nc(CN1CCC(c3cccc(OCc4ccc(C#N)cc4F)n3)CC1)n2C` [Compound 128, 4-Acetoxy-2-((4-(6-((4-cyano-2-fluorobenzyl)oxy)pyridin-2-yl)piperidin-1-yl)methyl)-1-methyl-1H-benzo[d]imidazole-6-carboxylic acid] displayed an EC50 of 10 to 100 nM. Besides, under setting [1], the Emax is over 85%.

Consider `CS(=O)(=O)Nc1cc(C(=O)O)cc2c1nc(CN1CCC(c3cccc(OCc4ccc(C#N)cc4F)n3)CC1)n2C[C@@H]1CCO1` [Compound 129, (S)-2-((4-(6-((4-cyano-2-fluorobenzyl)oxy)pyridin-2-yl)piperidin-1-yl)methyl)-4-(methylsulfonamido)-1-(oxetan-2-ylmethyl)-1H-benzo[d]imidazole-6-carboxylic acid], for which the concentration giving a half-maximal response (EC50) lay within 10 to 100 nM. Moreover, under setting [1], the Emax was over 85%.

For the compound `[2H]C([2H])(C)Oc1cc(C(=O)O)cc2c1nc(C([2H])([2H])N1CCC(c3cccc(OC([2H])([2H])c4ccc(Cl)cc4F)n3)CC1)n2C` [Compound 381, 2-((4-(6-((4-Chloro-2-fluorophenyl)methoxy-d2)pyridin-2-yl)piperidin-1-yl)methyl-d2)-4-(ethoxy-1,1-d2)-1-methyl-1H-benzo[d]imidazole-6-carboxylic acid], the EC50 was under 10 nM. Moreover, the Emax under setting [1] was over 85%.

For the compound `Cn1c(CN2CCC(c3ccnnc3OCc3ccc(Cl)cc3F)CC2)nc2c(OC(F)F)cc(C(=O)O)cc21` [Compound 355, 2-((4-(3-((4-Chloro-2-fluorobenzyl)oxy)pyridazin-4-yl)piperidin-1-yl)methyl)-4-(difluoromethoxy)-1-methyl-1H-benzo[d]imidazole-6-carboxylic acid], the concentration giving a half-maximal response (EC50) lay in the range of 100 to 1000 nM. Also, the Emax under setting [1] is over 85%.

`Cn1c(CN2CCC(c3cccc(OCc4ccc(Cl)cc4F)n3)CC2)nc2c(Cl)cc(C(=O)O)cc21` [Compound 218, 4-chloro-2-((4-(6-((4-chloro-2-fluorobenzyl)oxy)pyridin-2-yl)piperidin-1-yl)methyl)-1-methyl-1H-benzo[d]imidazole-6-carboxylic acid] yielded a concentration for a half-maximal effect (EC50) of 10 to 100 nM. This compound displayed an Emax under setting [1] of over 85%.

`CO[C@H]1C[C@@H](Oc2cc(C(=O)O)cc3c2nc(CN2CCC(c4cccc(OCc5ccc(C#N)cc5F)n4)CC2)n3C)C1` [Compound 318, 2-((4-(6-((4-Cyano-2-fluorobenzyl)oxy)pyridin-2-yl)piperidin-1-yl)methyl)-4-((1s,3s)-3-methoxycyclobutoxy)-1-methyl-1H-benzo[d]imidazole-6-carboxylic acid] returned an EC50 of 100 to 1000 nM. In addition, the Emax under setting [1] was over 85%.

Regarding `COc1cc(C#N)ncc1COc1cccc(C2CCN(Cc3nc4c(OC(F)F)cc(C(=O)O)cc4n3C)CC2)n1` [Compound 354], the 50% effective concentration (EC50) was in the range of 10 to 100 nM. In addition, the maximal effect (Emax) under setting [1] is over 85%.

Take `CCOc1cc(-c2nc(=O)o[nH]2)cc2c1nc(CN1CCC(c3cccc(OCc4ccc(C#N)cc4F)n3)CC1)n2C` [Compound 260, 4-(((6-(1-((4-ethoxy-1-methyl-6-(5-oxo-2,5-dihydro-1,2,4-oxadiazol-3-yl)-1H-benzo[d]imidazol-2-yl)methyl)piperidin-4-yl)pyridin-2-yl)oxy)methyl)-3-fluorobenzonitrile]: the EC50 fell in the range of 10 to 100 nM. Under setting [1], this compound showed a maximum response (Emax) of over 85%.

The compound `Cn1c(CN2CCC(c3cccc4c3O[C@H](c3ccc(Cl)cc3F)CC4)CC2)nc2c(OC(F)F)cc(C(=O)O)cc21` [Compound 368, (S)-2-((4-(2-(4-Chloro-2-fluorophenyl)chroman-8-yl)piperidin-1-yl)methyl)-4-(difluoromethoxy)-1-methyl-1H-benzo[d]imidazole-6-carboxylic acid] displayed an EC50 of over 1000 nM. This compound also gave an Emax under setting [1] of 25 to 50%.

Consider `Cn1c(CN2CCC(c3cccc(OCc4ccc(C#N)cc4F)n3)CC2)nc2c(N)cc(C(=O)O)cc21` [Compound 115, 4-amino-2-((4-(6-((4-cyano-2-fluorobenzyl)oxy)pyridin-2-yl)piperidin-1-yl)methyl)-1-methyl-1H-benzo[d]imidazole-6-carboxylic acid], for which the EC50 was under 10 nM. The Emax under setting [1] is over 85%.

Take `N#Cc1ccc(COc2cccc(C3CCN(Cc4nc5ccc(C(=O)O)c(O)c5n4C[C@@H]4CCO4)CC3)n2)c(F)c1` [Compound 377, (S)-2-((4-(6-((4-Cyano-2-fluorobenzyl)oxy)pyridin-2-yl)piperidin-1-yl)methyl)-7-hydroxy-1-(oxetan-2-ylmethyl)-1H-benzo[d]imidazole-6-carboxylic acid]: the EC50 was under 10 nM. Further, the “GLP-1R Low Expression Cell Assay Emax (%)” value under setting [1] was “++++ (Emax is >85%)”.

For `Cn1c(CN2CCC(c3cccc(OCc4ccc(C#N)cc4F)n3)CC2)nc2c(O)cc(C(=O)O)cc21` [Compound 114, 2-((4-(6-((4-Cyano-2-fluorobenzyl)oxy)pyridin-2-yl)piperidin-1-yl)methyl)-4-hydroxy-1-methyl-1H-benzo[d]imidazole-6-carboxylic acid], the EC50 was under 10 nM. Under setting [1], this compound displayed an Emax of over 85%.

As for `CO[C@H]1C[C@H](Oc2cc(C(=O)O)cc3c2nc(CN2CCC(c4cccc(OCc5ccc(C#N)cc5F)n4)CC2)n3C)C1` [Compound 317, 2-((4-(6-((4-Cyano-2-fluorobenzyl)oxy)pyridin-2-yl)piperidin-1-yl)methyl)-4-((1r,3r)-3-methoxycyclobutoxy)-1-methyl-1H-benzo[d]imidazole-6-carboxylic acid], the concentration for a half-maximal effect (EC50) lay within 100 to 1000 nM. The compound further displayed a maximal response (Emax) under setting [1] of over 85%.

Regarding `Cn1c(CN2CCC(c3cccnc3NCc3ccc(Cl)cc3F)CC2)nc2c(OC(F)F)cc(C(=O)O)cc21` [Compound 239, 2-((4-(2-((4-Chloro-2-fluorobenzyl)amino)pyridin-3-yl)piperidin-1-yl)methyl)-4-(difluoromethoxy)-1-methyl-1H-benzo[d]imidazole-6-carboxylic acid], the EC50 is over 1000 nM. Under setting [1], the Emax was in the range of 50 to 85%.

The compound `C[C@]1(c2ccc(Cl)cn2)Oc2cccc(C3CCN(Cc4nc5c(O)cc(C(=O)O)cc5n4C[C@@H]4CCO4)CC3)c2O1` [Compound 92, 2-((4-((S)-2-(5-Chloropyridin-2-yl)-2-methylbenzo[d][1,3]dioxol-4-yl)piperidin-1-yl)methyl)-4-hydroxy-1-(((S)-oxetan-2-yl)methyl)-1H-benzo[d]imidazole-6-carboxylic acid] yielded an EC50 of under 10 nM. Besides, the Emax under setting [1] is over 85%.

As for `Cn1c(CN2CCC(c3cccc(OCc4ccc(C#N)cc4F)n3)CC2)nc2c(OCC(F)(F)F)cc(C(=O)O)cc21` [Compound 121, 2-((4-(6-((4-Cyano-2-fluorobenzyl)oxy)pyridin-2-yl)piperidin-1-yl)methyl)-1-methyl-4-(2,2,2-trifluoroethoxy)-1H-benzo[d]imidazole-6-carboxylic acid], the concentration for a half-maximal effect (EC50) was under 10 nM. Besides, the maximum response (Emax) under setting [1] is over 85%.

For the compound `CC(C)(C)Oc1cc(C(=O)O)cc2c1nc(CN1CCC(c3cccc(OCc4ccc(C#N)cc4F)n3)CC1)n2C[C@@H]1CCO1` [Compound 109, (S)-4-(tert-Butoxy)-2-((4-(6-((4-cyano-2-fluorobenzyl)oxy)pyridin-2-yl)piperidin-1-yl)methyl)-1-(oxetan-2-ylmethyl)-1H-benzo[d]imidazole-6-carboxylic acid], the concentration for a half-maximal effect (EC50) was under 10 nM. In addition, the Emax under setting [1] was over 85%.

Regarding `Cn1c(CN2CCC(c3cccc(OCc4ccc(Cl)cc4F)n3)CC2)nc2c(OCCF)cc(C(=O)O)cc21` [Compound 170, 2-((4-(6-((4-Chloro-2-fluorobenzyl)oxy)pyridin-2-yl)piperidin-1-yl)methyl)-4-(2-fluoroethoxy)-1-methyl-1H-benzo[d]imidazole-6-carboxylic acid], the half-maximal effective concentration (EC50) was under 10 nM. The compound also yielded an Emax under setting [1] of over 85%.

In turn, `Cn1c(CN2CCC(c3cccc4c3O[C@@H](c3ccc(Cl)cc3F)CC4)CC2)nc2c(OC(F)F)cc(C(=O)O)cc21` [Compound 369, (R)-2-((4-(2-(4-Chloro-2-fluorophenyl)chroman-8-yl)piperidin-1-yl)methyl)-4-(difluoromethoxy)-1-methyl-1H-benzo[d]imidazole-6-carboxylic acid] registered a concentration giving a half-maximal response (EC50) of over 1000 nM. Besides, the maximal response (Emax) under setting [1] was under 25%.

With `Cn1c(CN2CCC(c3ccc4c(c3)N(Cc3ccc(Cl)cc3F)C(=O)CO4)CC2)nc2c(OC(F)F)cc(C(=O)O)cc21` [Compound 193, 2-((4-(4-(4-chloro-2-fluorobenzyl)-3-oxo-3,4-dihydro-2H-benzo[b][1,4]oxazin-6-yl)piperidin-1-yl)methyl)-4-(difluoromethoxy)-1-methyl-1H-benzo[d]imidazole-6-carboxylic acid], the EC50 was over 1000 nM. Further, the maximal response (Emax) under setting [1] is under 25%.

Turning to `Cn1c(CN2CCC(c3cccc(F)c3OCc3ccc(C#N)cc3F)CC2)nc2c(OC(F)F)cc(C(=O)O)cc21` [Compound 182, 2-((4-(2-((4-Cyano-2-fluorobenzyl)oxy)-3-fluorophenyl)piperidin-1-yl)methyl)-4-(difluoromethoxy)-1-methyl-1H-benzo[d]imidazole-6-carboxylic acid], the half-maximal effective concentration (EC50) is 100 to 1000 nM. Further, the maximum response (Emax) under setting [1] was over 85%.

(Values after patent US20240368120A1 (Terns Pharmaceuticals, Inc., priority 2023, published 2024).)
